Patent US7087626B2, “Pyrrole derivatives as pharmaceutical agents” (Eli Lilly and Company, priority 2001, dated 2006)
Counter-ions that a name gives are not always drawn.

Experiments:
KDR (VEGFR2) = target: T1, KDR (VEGFR2) (Homo sapiens, UniProt P35968); assay: KDR (VEGFR2) in vitro kinase assay; type: biochemical; details: 1 ug enzyme, 1 uM ATP, 30° C., 20 min
T1 construct: The 6×-HIS tagged cytoplasmic kinase domain of KDR was expressed and purified from Sf9 insect cell lysates; 6xHis; made in house; host or cells: Sf9 insect cells
T1 sequence (P35968 834-1162 limits assumed, species assumed): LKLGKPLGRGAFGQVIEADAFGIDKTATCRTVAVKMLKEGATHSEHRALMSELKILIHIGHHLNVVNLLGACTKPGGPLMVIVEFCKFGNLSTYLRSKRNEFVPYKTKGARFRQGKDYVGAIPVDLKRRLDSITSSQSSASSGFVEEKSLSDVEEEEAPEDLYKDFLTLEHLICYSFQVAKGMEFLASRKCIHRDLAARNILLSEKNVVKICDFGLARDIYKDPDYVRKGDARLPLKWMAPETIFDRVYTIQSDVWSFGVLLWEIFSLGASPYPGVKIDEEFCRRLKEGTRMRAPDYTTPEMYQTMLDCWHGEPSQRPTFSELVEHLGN
Method: KDR (VEGFR2) Purification and in vitro Kinase Assay
The 6×-HIS tagged cytoplasmic kinase domain of KDR was expressed and purified from Sf9 insect cell lysates as described above with the following modification:
1× kinase buffer for chromatography washes and elution was changed to 100 mM HEPES pH 7.5, 10 mM MnCl2 and 5 mM β-mercaptoethanol. The resulting material was approximately 40% pure and had tyrosine autophosphorylation activity.
Reactions: 1 ug enzyme in 1×KB, compound dilution series in 1×KB/16% DMSO (20 uM to 1 nM final concentration with 4% DMSO final concentration), reactions were started by adding ATP mix (1 uM ATP/1 uCi ^33P-[…]-ATP final concentrations) in 1×KB.
Reactions were incubated at 30° C. for 20 min. The reactions were stopped and quantitated using standard TCA/BSA precipitation onto Millipore FC glass fiber filter plates and by liquid scintillation counting on a MicroBeta JET.

p38α/SAPK2α = target: T2, p38α/SAPK2α (Homo sapiens, UniProt Q16539); assay: p38α in vitro kinase assay; type: biochemical; details: 5 nM p38α, 62.5 uM EGFR substrate, 100 uM ATP, 30° C., 40 min
T2 construct: purchased Upstate Biotechnology 14-251
T2 sequence (Q16539 whole entry): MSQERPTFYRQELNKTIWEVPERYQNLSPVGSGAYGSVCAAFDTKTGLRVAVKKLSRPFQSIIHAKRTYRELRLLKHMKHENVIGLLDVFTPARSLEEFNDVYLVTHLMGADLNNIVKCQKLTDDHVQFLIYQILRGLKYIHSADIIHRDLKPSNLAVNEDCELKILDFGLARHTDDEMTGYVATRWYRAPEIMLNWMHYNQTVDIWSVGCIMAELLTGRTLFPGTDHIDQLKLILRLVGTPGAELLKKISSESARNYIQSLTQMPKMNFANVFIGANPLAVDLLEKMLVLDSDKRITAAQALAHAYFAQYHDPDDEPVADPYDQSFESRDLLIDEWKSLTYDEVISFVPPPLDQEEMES
Method: p38α in vitro Kinase Assay
Active p38α/SAPK2α was purchased from Upstate Biotechnology (cat#14-251). A known p38α substrate from EGFR was used in the assay (Young, et al. (1997) JBC 272: 12116-12121).
Reactions were performed in 1× kinase buffer (25 mM Tris-HCl pH 7.5, 5 mM β-glycerophosphate, 2 mM DTT, 0.1 mM Na3VO4, 10 mM MgCl2, 1 uM Microcystin) with 5 nM p38α, 62.5 uM substrate, 40 uM to 0.2 nM compound dilution series in 1×KB/16% DMSO (final 4% DMSO concentration). Reactions were started by addition of 100 uM ATP (final concentration) with 1 uCi ^33P-γ-ATP in 1×KB and incubated at 30° C. for 40 min. Reactions were stopped with H3PO4 and quantitated on Millipore PH phosphocellulose filter plates by liquid scintillation counting on a MicroBeta JET.

[1] = test system: TGF-β dependent luciferase production in Mv1Lu C1 cells (p3TP-Lux reporter); assay: MV1LU p3TP-Lux assay; type: cell-based; details: TGF-β1 10 pM, 16-20 hrs
Source text: A stable Mv1Lu clone (C1) containing the p3TP-Lux reporter was created by standard transfection and puromycin selection protocols. This stable clone was used to screen the example compounds for their ability to inhibit TGF-β dependent luciferase production as briefly described below: • 1. Plated Mv1Lu C1 cells in Wallac™ Black Isoplates • 2. Allowed cells to adhere overnight. • 3. Removed media and replaced with 0.5% FBS DMEM media • 4. Added the compound dilution series in 0.5% FBS/DMEM containing 1% DMSO such that the final compound concentration ranged from 20 uM to 0.1 nM and the final DMSO concentration was 0.2%. • 5. Incubated at 37° C./5% CO2 for 2 hrs. • 6. Added 0.5% FBS/DMEM as control or TGF-β1 diluted in 0.5% FBS/DMEM (final concentration of 10 pM) to the −/+ TGF-β wells respectively • 7. Incubated for 16-20 hrs. at 37° C./5% CO2 • 8. Removed media and rinsed 1× with PBS. • 9. Removed PBS and lysed the cells with 1× Passive Lysis Buffer (Promega) at room temperature. • 10. Counted relative luciferase activity on the MicroBeta JET by injecting Luciferase Assay Reagent II (PROMEGA).
The use of the above assay in measuring TGF-β responsive activity is described in Wrana, et al. Cell 71: 1003-1014 (1992).

[2] = target: T3, TGF-β Type I (RIT204D) receptor (Homo sapiens, UniProt P36897, T204D); assay: TGF-β Receptor I (RIT204D) in vitro kinase reaction; type: biochemical; details: 6×-HIS cytoplasmic kinase domain, 4 uM ATP, 30° C., 1 hr
T3 construct: The 6×-HIS tagged cytoplasmic kinase domain of each receptor was expressed and purified from Sf9 insect cell lysates; 6xHis; made in house; host or cells: Sf9 insect cells
T3 sequence (P36897 148-503 T204D limits assumed): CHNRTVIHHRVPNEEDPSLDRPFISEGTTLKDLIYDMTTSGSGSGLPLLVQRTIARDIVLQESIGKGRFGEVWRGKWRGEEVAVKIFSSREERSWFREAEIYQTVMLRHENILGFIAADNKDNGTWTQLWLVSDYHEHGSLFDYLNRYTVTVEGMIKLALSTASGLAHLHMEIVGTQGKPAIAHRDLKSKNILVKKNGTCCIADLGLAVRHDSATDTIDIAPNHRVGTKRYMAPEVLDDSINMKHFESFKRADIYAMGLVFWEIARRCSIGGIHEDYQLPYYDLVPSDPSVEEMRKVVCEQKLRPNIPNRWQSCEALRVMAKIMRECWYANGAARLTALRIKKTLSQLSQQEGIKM
Method: TGF-β Receptor I and II Purification and in vitro Kinase Reactions
For TGF-β Type I (RIT204D) and Type II (RII WT) Receptors: The 6×-HIS tagged cytoplasmic kinase domain of each receptor was expressed and purified from Sf9 insect cell lysates as briefly described below:
Cell pellets after 48-72 hrs of infection were lysed in lysis buffer (LB: 50 mM Tris pH 7.5, 150 mM NaCl, 50 mM NaF, 0.5% NP40 with freshly added 20 mM, β-mercaptoethanol, 10 mM imidazole, 1 mM PMSF, 1×EDTA-free Complete Protease Inhibitor (Boehringer Mannheim).
Reactions: 170-200 nM enzyme in 1×KB, compound dilution series in 1×KB/16% DMSO (20 uM to 1 nM final concentration with 4% DMSO final concentration), reactions started by adding ATP mix (4 uM ATP/1 uCi ^33P-[…]-ATP final concentrations) in 1×KB.
Reactions were incubated at 30° C. for 1 hr RIT204D or 40 min for RII WT. Reactions were stopped and quantitated using standard TCA/BSA precipitation onto Millipore FB glass fiber filter plates and by liquid scintillation counting on a MicroBeta JET.

| SMILES | IC50 (KDR (VEGFR2)) | IC50 [1] | other results |
| --- | --- | --- | --- |
| NCCCOc1ccc2c(-c3c(-c4ccccn4)nn4c3CCC4)ccnc2c1 [3-[4-(2-pyridin-2-yl-5,6-dihydro-4H-pyrrolo[1,2-b]pyrazol-3-yl)-quinolin-7-yloxy]-propylamine] | < 20 µM | – | – |
| c1ccc(-c2nn3c(c2-c2ccnc4cc(OCCCn5ccnn5)ccc24)CCC3)nc1 [4-(2-Pyridin-2-yl-5,6-dihydro-4H-pyrrolo[1,2-b]pyrazol-3-yl)-7-(3-[1,2,3]triazol-1-yl-propoxy)-quinoline] | < 20 µM | – | – |
| c1ccc(-c2nn3c(c2-c2ccnc4cc(OCCCN5CCCC5)ccc24)CCC3)nc1 [4-(2-Pyridin-2-yl-5,6-dihydro-4H-pyrrolo[1,2-b]pyrazol-3-yl)-7-(3-pyrrolidin-1-yl-propoxy)-quinoline] | < 20 µM | – | – |
| Oc1ccc2c(-c3c(-c4ccccn4)nn4c3CCC4)ccnc2c1 [4-(2-Pyridin-2-yl-5,6-dihydro-4H-pyrrolo[1,2-b]pyrazol-3-yl)-quinolin-7-ol] | < 20 µM | – | – |
| CC(=O)NCCNC(=O)c1ccc2c(-c3c(-c4ccccn4)nn4c3CCC4)ccnc2c1 [4-(2-Pyridin-2-yl-5,6-dihydro-4H-pyrrolo[1,2-b]pyrazol-3-yl)-quinoline-7-carboxylic acid (2-acetylamino-ethyl)-amide] | < 20 µM | – | – |
| c1ccc(-c2nn3c(c2-c2ccnc4ccccc24)OCC3)nc1 [4-(6-Pyridin-2-yl-2,3-dihydro-pyrazolo[5,1-b]oxazol-7-yl)-quinoline dioxylate salt] | < 20 µM | – | – |
| Cc1cccc(-c2nn3c(c2-c2ccnc4cc(OCCCN5CCOCC5)ccc24)CCC3)n1 [4-[2-(6-Methyl-pyridin-2-yl)-5,6-dihydro-4H-pyrrolo[1,2-b]pyrazol-3-yl]-7-(3-morpholin-4-yl-propoxy)-quinoline] | < 20 µM | – | – |
| Cc1cccc(-c2nn3c(c2-c2ccnc4cc(C(=O)NCCCN(C)C)ccc24)CCC3)n1 [4-[2-(6-Methyl-pyridin-2-yl)-5,6-dihydro-4H-pyrrolo[1,2-b]pyrazol-3-yl]-quinoline-7-carboxylic acid (3-dimethylamino-propyl)-amide] | < 20 µM | – | – |
| COC(=O)c1ccc2c(-c3c(-c4cccc(C)n4)nn4c3CCC4)ccnc2c1 [4-[2-(6-Methyl-pyridin-2-yl)-5,6-dihydro-4H-pyrrolo[1,2-b]pyrazol-3-yl]-quinoline-7-carboxylic acid methyl ester] | < 20 µM | – | – |
| COC(=O)c1ccc2c(-c3c(-c4ccccn4)nn4c3CCC4)ccnc2c1 [4-[2-Pyridin-2-yl-5,6-dihydro-4H-pyrrolo[1,2-b]pyrazol-3-yl]-quinoline-7-carboxylic acid methyl ester] | < 20 µM | – | IC50 (p38α/SAPK2α): < 20 µM |
| Cc1cccc(-c2nn3c(c2-c2ccnc4ccc(-c5ccc6c(c5)OCO6)cc24)CCC3)n1 [6-Benzo[1,3]dioxol-5-yl-4-[2-(6-methyl-pyridin-2-yl)-5,6-dihydro-4H-pyrrolo[1,2-b]pyrazol-3-yl]-quinoline] | – | < 20 µM | – |
| c1ccc(-c2nn3c(c2-c2ccnc4cc(OCCCN5CCCCCC5)ccc24)CCC3)nc1 [7-(3-azepan-1-yl-propoxy)-4-(2-pyridin-2-yl-5,6-dihydro-4H-pyrrolo[1,2-b]pyrazol-3-yl)-quinoline] | – | < 20 µM | – |
| Cc1cccc(-c2nn3c(c2-c2ccnc4cc(OCCCCl)ccc24)CCC3)n1 [7-(3-chloro-propoxy)-4-[2-(6-methyl-pyridin-2-yl)-5,6-dihydro-4H-pyrrolo[1,2-b]pyrazol-3-yl]-quinoline] | – | < 20 µM | – |

The next lines start with results.

| IC50 (KDR (VEGFR2)) | IC50 [1] | SMILES | other results |
| --- | --- | --- | --- |
| – | < 20 µM | Cc1cccc(-c2nn3c(c2-c2ccnc4c(F)cccc24)CCC3)n1 [8-Fluoro-4-[2-(6-methyl-pyridin-2-yl)-5,6-dihydro-4H-pyrrolo[1,2-b]pyrazol-3-yl]-quinoline] | – |
| < 20 µM | – | CN(CCCOc1ccc2c(-c3c(-c4ccccn4)nn4c3CCC4)ccnc2c1)Cc1ccccc1 [Benzyl-methyl-{3-[4-(2-pyridin-2-yl-5,6-dihydro-4H-pyrrolo[1,2-b]pyrazol-3-yl)-quinolin-7-yloxy]-propyl}-amine] | – |
| < 20 µM | – | CCN(CC)CCCOc1ccc2c(-c3c(-c4cccc(C)n4)nn4c3CCC4)ccnc2c1 [Diethyl-(3-{4-[2-(6-methyl-pyridin-2-yl)-5,6-dihydro-4H-pyrrolo[1,2-b]pyrazol-3-yl]-quinolin-7-yloxy}-propyl)-amine] | – |
| < 20 µM | – | CN(C)C(=O)c1cccc(Oc2ccc3c(-c4c(-c5ccccn5)nn5c4CCC5)ccnc3c2)c1 [N,N-Dimethyl-3-[4-(2-pyridin-2-yl-5,6-dihydro-4H-pyrrolo[1,2-b]pyrazol-3-yl)-quinolin-7-yloxy]-benzamide] | IC50 [2]: < 20 µM |
| – | < 20 µM | Cc1cccc(-c2nn3c(c2-c2ccnc4cc(CCC(=O)N(C)C)ccc24)CCC3)n1 [N,N-Dimethyl-3-{4-[2-(6-methyl-pyridin-2-yl)-5,6-dihydro-4H-pyrrolo[1,2-b]pyrazol-3-yl]-quinolin-7-yl}-propionamide] | – |
| – | < 20 µM | OCc1cccc(-c2nn3c(c2-c2ccnc4ccccc24)CCC3)n1 [[6-(3-Quinolin-4-yl-5,6-dihydro-4H-pyrrolo[1,2-b]pyrazol-2-yl)-pyridin-2-yl]-methanol] | – |
